Assay results reported in PubChem BioAssay (NCI).
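Five concentrations, 48 hours, 96-well plates. TGI: concentration producing complete growth inhibition.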

Experiments:
Experiment in all cases: growth of human tumour cells (NCI), 48 h
[1] = test system: K-562 leukemia
[2] = test system: A549 NSCLC
[3] = test system: OVCAR-4 ovarian
[4] = test system: IGROV1 ovarian
[5] = test system: KM20L2 colon
[6] = test system: SF-539 CNS
[7] = test system: U251 CNS
[8] = test system: MALME-3M melanoma
[9] = test system: SF-268 CNS
[10] = test system: SK-OV-3 ovarian
[11] = test system: OVCAR-5 ovarian
[12] = test system: CCRF-CEM leukemia
[13] = test system: LXFL 529 NSCLC
[14] = test system: HT29 colon
[15] = test system: KM12 colon
[16] = test system: SK-MEL-5 melanoma
[17] = test system: SNB-19 CNS
[18] = test system: SW-620 colon
[19] = test system: RXF-631 renal
[20] = test system: RPMI-8226 leukemia
[21] = test system: XF 498 CNS
[22] = test system: HOP-18 NSCLC
[23] = test system: OVCAR-8 ovarian
[24] = test system: NCI-H460 lung
[25] = test system: 786-0 renal
[26] = test system: NCI-H23 lung
[27] = test system: COLO 205 colon
[28] = test system: SNB-75 CNS
[29] = test system: OVCAR-3 ovarian
[30] = test system: HCT-15 colon
[31] = test system: SK-MEL-28 melanoma
[32] = test system: UACC-62 melanoma
[33] = test system: CAKI-1 renal
[34] = test system: SN12C renal
[35] = test system: DMS 114 small cell lung
[36] = test system: DMS 273 small cell lung
[37] = test system: NCI-H522 lung
[38] = test system: LOX IMVI melanoma
[39] = test system: HOP-62 NSCLC
[40] = test system: M19-MEL melanoma
[41] = test system: SK-MEL-2 melanoma
[42] = test system: TK-10 renal
[43] = test system: UACC-257 melanoma
[44] = test system: HOP-92 NSCLC
[45] = test system: A498 renal
[46] = test system: ACHN renal
[47] = test system: EKVX NSCLC
[48] = test system: RXF 393 renal
[49] = test system: SF-295 CNS
[50] = test system: UO-31 renal
[51] = test system: HL-60(TB) leukemia
[52] = test system: MOLT-4 leukemia
[53] = test system: M14 melanoma

Measured: TGI

C[N+](C)(C)CC(CC(=O)[O-])C1CC1 (stereo not drawn)
> 100 µM: all assays above
